ChEMBL document CHEMBL3885861, “Open TG-GATES”

Species: Rattus norvegicus
Assay: Open TG-GATES - Regimen: Single
Assay type: toxicity, organism-based, Sprague-Dawley
Set-up: regimen Single, gender Male, age 6 weeks
Settings: in vivo, po, 45 mg/kg, route gavage, dose level Low; for APTT / Bas / Eos / Fbg / Hb / Ht / Lym / MCH / MCHC / MCV / Mono / Neu / PT / Plat / RBC / Ret / WBC: tissue Blood; for KIDNEY_L / KIDNEY_R / KIDNEY_TOTAL: tissue Kidney; for LIVER: tissue Liver; for ALP / ALT / AST / BUN / CRE / DBIL / GLC / K / LDH / Na / PL / RALB / TBIL / TC / TG / TP / gamma-GTP: tissue Plasma

CC(CCc1ccccc1)NCC(O)c1ccc(O)c(C(N)=O)c1 (stereo unspecified) [LABETALOL]
TERMINAL_BW (3 h): 214.4 g
APTT (3 h): 16 s
Bas (3 h): 0%
Eos (3 h): 1%
Fbg (3 h): 265.8 mg/dL
Hb (3 h): 13 g/dL
Ht (3 h): 38.2%
Lym (3 h): 78.2%
MCH (3 h): 22.2 pg
MCHC (3 h): 33.9%
MCV (3 h): 65.5 fL
Mono (3 h): 3.2%
Neu (3 h): 16.6%
PT (3 h): 13.1 s
Plat (3 h): 103.6 x10_4/uL
RBC (3 h): 584 x10_4/ul
Ret (3 h): 8.6%
WBC (3 h): 63.4 x10_2/uL
KIDNEY_L (3 h): 0.9 g
KIDNEY_R (3 h): 0.9 g
KIDNEY_TOTAL (3 h): 1.8 g
LIVER (3 h): 9.7 g
ALP (3 h): 1420.4 IU/L
ALT (3 h): 42.2 IU/L
AST (3 h): 70.8 IU/L
BUN (3 h): 11.6 mg/dL
CRE (3 h): 0.2 mg/dL
DBIL (3 h): 0.014 mg/dL
GLC (3 h): 190.2 mg/dL
K (3 h): 3.8 meq/L
LDH (3 h): 56.2 IU/L
Na (3 h): 143 meq/L
PL (3 h): 147.4 mg/dL
RALB (3 h): 2.6 g/dL
TBIL (3 h): 0.044 mg/dL
TC (3 h): 83.6 mg/dL
TG (3 h): 60.4 mg/dL
TP (3 h): 5.4 g/dL
gamma-GTP (3 h): 1 IU/L
TERMINAL_BW (6 h): 214.9 g
APTT (6 h): 16.1 s
Bas (6 h): 0%
Eos (6 h): 1%
Fbg (6 h): 287.6 mg/dL
Hb (6 h): 12.8 g/dL
Ht (6 h): 37.8%
Lym (6 h): 75.6%
MCH (6 h): 21.4 pg
MCHC (6 h): 33.8%
MCV (6 h): 63.3 fL
Mono (6 h): 2.4%
Neu (6 h): 20.6%
PT (6 h): 13.1 s
Plat (6 h): 116.3 x10_4/uL
RBC (6 h): 596.4 x10_4/ul
Ret (6 h): 8.2%
WBC (6 h): 76.9 x10_2/uL
KIDNEY_L (6 h): 0.9 g
KIDNEY_R (6 h): 0.9 g
KIDNEY_TOTAL (6 h): 1.9 g
LIVER (6 h): 8.9 g
ALP (6 h): 1402 IU/L
ALT (6 h): 40.2 IU/L
AST (6 h): 73 IU/L
BUN (6 h): 9.6 mg/dL
CRE (6 h): 0.2 mg/dL
DBIL (6 h): 0.01 mg/dL
GLC (6 h): 180.4 mg/dL
K (6 h): 3.9 meq/L
LDH (6 h): 46 IU/L
Na (6 h): 142.8 meq/L
PL (6 h): 135.8 mg/dL
RALB (6 h): 2.5 g/dL
TBIL (6 h): 0.038 mg/dL
TC (6 h): 82.4 mg/dL
TG (6 h): 50.6 mg/dL
TP (6 h): 5.4 g/dL
gamma-GTP (6 h): 1.2 IU/L
TERMINAL_BW (9 h): 212.6 g
APTT (9 h): 16.8 s
Bas (9 h): 0%
Eos (9 h): 1%
Fbg (9 h): 293.4 mg/dL
Hb (9 h): 12.9 g/dL
Ht (9 h): 38.5%
Lym (9 h): 79.4%
MCH (9 h): 21.3 pg
MCHC (9 h): 33.7%
MCV (9 h): 63.3 fL
Mono (9 h): 1.8%
Neu (9 h): 17.2%
PT (9 h): 13.3 s
Plat (9 h): 106.4 x10_4/uL
RBC (9 h): 608.2 x10_4/ul
Ret (9 h): 8.2%
WBC (9 h): 70.4 x10_2/uL
KIDNEY_L (9 h): 0.9 g
KIDNEY_R (9 h): 0.9 g
KIDNEY_TOTAL (9 h): 1.9 g
LIVER (9 h): 8.1 g
ALP (9 h): 1452.8 IU/L
ALT (9 h): 43.6 IU/L
AST (9 h): 69 IU/L
BUN (9 h): 9.6 mg/dL
CRE (9 h): 0.2 mg/dL
DBIL (9 h): 0.008 mg/dL
GLC (9 h): 184.2 mg/dL
K (9 h): 3.9 meq/L
LDH (9 h): 46.2 IU/L
Na (9 h): 143.6 meq/L
PL (9 h): 136 mg/dL
RALB (9 h): 2.5 g/dL
TBIL (9 h): 0.038 mg/dL
TC (9 h): 81.8 mg/dL
TG (9 h): 39.6 mg/dL
TP (9 h): 5.3 g/dL
gamma-GTP (9 h): 1 IU/L
TERMINAL_BW (24 h): 226.1 g
APTT (24 h): 16.2 s
Bas (24 h): 0%
Eos (24 h): 1.2%
Fbg (24 h): 284.4 mg/dL
Hb (24 h): 13.5 g/dL
Ht (24 h): 39.1%
Lym (24 h): 78%
MCH (24 h): 21.9 pg
MCHC (24 h): 34.6%
MCV (24 h): 63.3 fL
Mono (24 h): 2.8%
Neu (24 h): 17.6%
PT (24 h): 12.8 s
Plat (24 h): 112.9 x10_4/uL
RBC (24 h): 618.6 x10_4/ul
Ret (24 h): 8.2%
WBC (24 h): 80.8 x10_2/uL
KIDNEY_L (24 h): 1 g
KIDNEY_R (24 h): 1 g
KIDNEY_TOTAL (24 h): 1.9 g
LIVER (24 h): 10.4 g
ALP (24 h): 1933.8 IU/L
ALT (24 h): 53.2 IU/L
AST (24 h): 82.2 IU/L
BUN (24 h): 14.8 mg/dL
CRE (24 h): 0.2 mg/dL
DBIL (24 h): 0.018 mg/dL
GLC (24 h): 181.8 mg/dL
K (24 h): 4.1 meq/L
LDH (24 h): 87.4 IU/L
Na (24 h): 142 meq/L
PL (24 h): 150.8 mg/dL
RALB (24 h): 2.7 g/dL
TBIL (24 h): 0.032 mg/dL
TC (24 h): 81.8 mg/dL
TG (24 h): 119 mg/dL
TP (24 h): 5.7 g/dL
gamma-GTP (24 h): 1.2 IU/L
